Data set [1] deals with histamine-induced skin vascular permeability. As to the kind of experiment: Inhibitory effect on histamine-induced vascular permeability in mice. The format is in vivo, ICR mice. The settings on record: Mus musculus, po; 5 mg/kg intragastric 1 hour before modeling; histamine phosphate 1 ug/0.1 mL; Evans Blue absorbance at 610 nm; read-out: Inhibition rate (%). As for the experimental part: Intragastric administration was performed 1 hour before modeling. The model group was given the corresponding solvent. […] 10% sodium sulfide was used to depilate the back of mice (3 cm×3 cm). The mice were injected 1 ug/0.1 mL of histamine phosphate physiological saline solution into the depilation site one hour after the administration, and injected 0.25% Evans Blue solution 4 ml/kg from the tail vein immediately after the injection. After 30 minutes, the mice were dislocated and sacrificed. The blue-stained part of the skin was removed and perforated (diameter 15 mm), cut into pieces and soaked in 1 ml of acetone-saline (7:3) solution. After 24 h, it was centrifuged (3000 r/min, 10 min) to take the supernatant. The absorbance of the sample was measured with an ultraviolet spectrophotometer at a wavelength of 610 nm and a blank zero calibration with acetone-physiological saline solution.

The test system of data set [2] is pilocarpine-induced saliva secretion. The data set can be described thus: Pilocarpine-induced salivation in rats. The settings on record: 10 mg/kg intragastric; pilocarpine 1 mg/kg i.p. 15 minutes later; saliva collected 10 minutes.
Experimental: Rats in each group were given corresponding drugs by intragastric administration. 15 minutes later, pilocarpine (1 mg/kg, dissolved in physiological saline) was injected intraperitoneally to induce saliva secretion. The rat was immediately anesthetized by intraperitoneal injection of 10% chloral hydrate. After the rat was anesthetized, the residual saliva in the oral cavity was taken out with a cotton ball in that the weighed cotton ball (M1) was placed in the oral cavity (two under the tongue and one for each on both sides). The cotton ball was taken out 10 minutes later and the weight of the cotton ball (M2) was immediately measured.
Inhibition rate=Saliva secretion in drug administration group/Saliva secretion in model group×100%

As for `CC(C)(C(=O)O)c1ccc(CCN2CCC(=C3c4ccc(Cl)cc4CCc4cccnc43)CC2)cc1` [Example 2, 2-(4-(2-(4-(4-(8-chloro-5,6-dihydro-11H-benzo[5,6]]cyclohept[1,2-b]pyridine-11-enyl)piperidin-1-yl)ethyl)phenyl)-2-methylpropionic acid], in data set [1], the inhibition in vivo at 5 mg/kg was 54%. The “Inhibition rate (%)” value in data set [2] came to 7.64%.

For `COc1cc(C(C)(C)C(=O)O)ccc1CCCN1CCC(=C2c3ccc(Cl)cc3CCc3cccnc32)CC1` [Example 5, 2-(4-(3-(4-(8-chloro-5,6-dihydro-11H-benzo[5,6]cyclohepta[1,2-b]pyridine-11-enyl)piperidine-1-yl)propyl)-3-methoxyphenyl)-2-methylpropionic acid], the inhibition in vivo at 5 mg/kg in data set [1] came out at 47.9%. Also, the “Inhibition rate (%)” value in data set [2] is listed as 11.60%.

As for `CC(C)(C(=O)O)c1ccc(CCCN2CCC(=C3c4ccc(Cl)cc4CCc4cccnc43)CC2)c(N)c1` [Example 6, 2-(3-Amino-4-(3-(4-(8-chloro-5,6-dihydro-11H-benzo[5,6]cyclohept[1,2-b]pyridine-11-enyl)piperidin-1-yl)propyl)phenyl)-2-methylpropionic acid], the inhibition in vivo at 5 mg/kg in data set [1] amounted to 53.2%. The “Inhibition rate (%)” value in data set [2] was 6.34%.

As for `CC(C)(C(=O)O)c1ccc(CCCN2CCC(=C3c4ccc(Cl)cc4CCc4cccnc43)CC2)cc1F` [Example 9, 2-(4-(3-(4-(8-chloro-5,6-dihydro-11H-benzo[5,6]cyclohepta[1,2-b]pyridine-11-enyl)piperidine-1-yl)propyl)-2-fluorophenyl)-2-methylpropionic acid], the inhibition in vivo at 5 mg/kg in data set [1] was determined as 50.6%. In addition, the “Inhibition rate (%)” value in data set [2] was 12.01%.

Regarding `Cc1cc(C(C)(C)C(=O)O)ccc1CCCN1CCC(=C2c3ccc(Cl)cc3CCc3cccnc32)CC1` [Example 10, 2-(4-(3-(4-(8-chloro-5,6-dihydro-11H-benzo[5,6]cyclohepta[1,2-b]pyridine-11-enyl)piperidine-1-yl)propyl)-3-methylphenyl)-2-methylpropionic acid], in data set [1], the inhibition in vivo at 5 mg/kg came to 41.2%. In addition, the “Inhibition rate (%)” value in data set [2] was found to be 5.13%.

With `CC(C)(C(=O)O)c1ccc(CCCN2CCC(=C3c4ccc(Cl)cc4CCc4cccnc43)CC2)c(C(F)(F)F)c1` [Example 12], the inhibition in vivo at 5 mg/kg in data set [1] is 44.6%. Besides, the “Inhibition rate (%)” value in data set [2] worked out at 7.48%.

As for `CC(C)(C(=O)O)c1ccc(CCCN2CCC(=C3c4ccc(Cl)cc4CCc4cccnc43)CC2)cc1C(F)(F)F` [Example 13], the inhibition in vivo at 5 mg/kg in data set [1] amounted to 51%. Further, in data set [2], the “Inhibition rate (%)” value is listed as 5.77%.

In the case of `CC(C)(C(=O)O)c1ccc(CCCN2CCC(=C3c4ccc(Cl)cc4CCc4cccnc43)CC2)c(Br)c1` [Example 14, 2-(3-Bromo-4-(3-(4-(8-chloro-5,6-dihydro-11H-benzo[5,6]cyclohept[1,2-b]pyridine-11-enyl)piperidin-1-yl)propyl)phenyl)-2-methylpropionic acid], the inhibition in vivo at 5 mg/kg in data set [1] was found to be 42.8%. Besides, the “Inhibition rate (%)” value in data set [2] was 3.78%.

Take `CC(C)(C(=O)O)c1ccc(CCCN2CCC(=C3c4ccc(Cl)cc4CCc4cccnc43)CC2)c(Cl)c1` [Example 15, 2-(3-chloro-4-(3-(4-(8-chloro-5,6-dihydro-11H-benzo[5,6]cyclohept[1,2-b]pyridine-11-enyl)piperidin-1-yl)propyl)phenyl)-2-methylpropionic acid]: the inhibition in vivo at 5 mg/kg in data set [1] came to 52.8%. In addition, the “Inhibition rate (%)” value in data set [2] was found to be 8.42%.

As to `CC(C)(C(=O)O)c1ccc(CCCN2CCC(=C3c4ccc(Cl)cc4CCc4cccnc43)CC2)c([N+](=O)[O-])c1` [Example 16, 2-(4-(3-(4-(8-chloro-5,6-dihydro-11H-benzo[5,6]cyclohepta[1,2-b]pyridine-11-enyl)piperidine-1-yl)propyl)-2-nitrophenyl)-2-methylpropionic acid], the inhibition in vivo at 5 mg/kg in data set [1] was found to be 50.8%. In addition, the “Inhibition rate (%)” value in data set [2] worked out at 10.76%.
